From ChEMBL document CHEMBL4673353, “Switching a Xanthine Oxidase Inhibitor to a Dual-Target Antagonist of P2Y and P2Y as an Oral Antiplatelet Agent with a Wider Therapeutic Window in Rats than Ticagrelor” (J Med Chem, 2020)

Tested on: Plasma
Assay: Antiplatelet activity in rabbit platelet-rich plasma assessed as inhibition of ADP-induced platelet aggregation preincubated for 5 mins followed by ADP addition measured every 1 min for up to 6 mins by microplate reader analysis
Assay type: functional, cell-free
Details: Oryctolagus cuniculus

| SMILES | IC50 [µM] |
| --- | --- |
| CCOC(=O)c1c(C)nc(-c2ccc(C#N)cc2)n1OC | 13.4 |
| CCOC(=O)c1c(C)nc(-c2cccc(C#N)c2)n1OCCCO | 11.4 |
| Cc1nc(-c2ccc(OCC(C)C)c(C#N)c2)n(O)c1C(=O)O | 15.7 |
| CCOC(=O)c1c(C)nc(-c2cccc(C#N)c2)n1OCc1cccc(Cl)c1 | 19.4 |
| CCOC(=O)c1c(C)nc(-c2ccc(OCC(C)C)c(C#N)c2)n1O | 16.8 |
| CCOC(=O)c1c(C)nc(-c2cccc(C#N)c2)n1OCc1cccc(F)c1 | 22.4 |
| CCOC(=O)c1c(C)nc(-c2cccc(C#N)c2)n1OCc1ccc([N+](=O)[O-])cc1 | 8.75 |
| CCOC(=O)c1c(C)nc(-c2cccc(C#N)c2)n1C(C)C | 9.26 |
| CCOC(=O)c1c(C)nc(-c2cccc(C#N)c2)n1OCc1ccc(Br)cc1 | 24.6 |
| CCOC(=O)c1c(C)nc(-c2cccc(C#N)c2)n1C | 22.1 |
| COn1c(-c2cccc(C#N)c2)nc(C)c1C(=O)O | 7.99 |
| CCOC(=O)c1c(C)nc(-c2cccc(C#N)c2)n1OC | 9.13 |
| CCOC(=O)c1c(C)nc(-c2ccccc2C#N)n1OC | 14.9 |
| CCOC(=O)c1[nH]c(-c2cccc(C#N)c2)nc1C | > 30 |
| CCCSc1nc(N[C@@H]2C[C@H]2c2ccc(F)c(F)c2)c2nnn([C@@H]3C[C@H](OCCO)[C@@H](O)[C@H]3O)c2n1 [TICAGRELOR] | 7.21 |
| CCOC(=O)c1c(C)nc(-c2cccc(C#N)c2)n1OCc1ccccc1C#N | 9.38 |
| CCOC(=O)c1c(C)nc(-c2cccc(C#N)c2)n1OCC(N)=O | > 30 |
| CCOC(=O)c1c(C)nc(-c2cccc(C#N)c2)n1OCc1cccc(C#N)c1 | > 30 |
| CCOC(=O)c1c(C)nc(-c2ccccc2)n1OC | > 30 |
| CCOC(=O)c1c(C)nc(-c2cccc(C#N)c2)n1OCc1ccc(C(=O)OC)cc1 | 9.47 |
| CCOC(=O)c1c(C)nc(-c2cccc(C#N)c2)n1O | 17.6 |
| CCOC(=O)c1c(C)nc(-c2cccc(C#N)c2)n1OCc1ccccc1Cl | 8.71 |
| CCOC(=O)c1c(C)nc(-c2cccc(C#N)c2)n1OCc1ccc(OC)cc1 | 6.83 |
| CCOC(=O)c1c(C)nc(-c2cccc(C#N)c2)n1OCc1ccccc1F | 8.99 |
| CCOC(=O)c1c(C)nc(-c2cccc(C#N)c2)n1OCCC(=O)O | > 30 |

The next lines start with the values.

| IC50 [µM] | SMILES |
| --- | --- |
| 6.31 | CCOC(=O)c1c(C)nc(-c2cccc(C#N)c2)n1OCc1ccc(C)cc1 |
| 5.86 | C=CCOn1c(-c2cccc(C#N)c2)nc(C)c1C(=O)OCC |
| 6.35 | C=CCOn1c(-c2cccc(C#N)c2)nc(C)c1C(=O)O |
| 6.8 | CCOC(=O)COn1c(-c2cccc(C#N)c2)nc(C)c1C(=O)OCC |
| 5.93 | CCOC(=O)c1c(C)nc(-c2cccc(C#N)c2)n1OCc1ccccc1 |
| 5.88 | CCOC(=O)c1c(C)nc(-c2cccc(C#N)c2)n1OCc1ccc(F)cc1 |
| 6.74 | CCOC(=O)c1c(C)nc(-c2cccc(C#N)c2)n1OC(C)C |
| 6.83 | CCOC(=O)c1c(C)nc(-c2cccc(C#N)c2)n1OCc1ccc(Cl)cc1 |
| 5.54 | CC(C)(C)c1ccccc1Oc1ncccc1NC(=O)Nc1ccc(OC(F)(F)F)cc1 |
| 6.25 | CCOCCOn1c(-c2cccc(C#N)c2)nc(C)c1C(=O)OCC |
| 6.24 | Cc1nc(-c2cccc(C#N)c2)n(OCc2ccccc2)c1C(=O)O |
| 6.56 | Cc1ccc(COn2c(-c3cccc(C#N)c3)nc(C)c2C(=O)O)cc1 |
| 6.2 | CCOC(=O)c1c(C)nc(-c2cccc(C#N)c2)n1OCc1ccncc1 |

Tested on: not listed separately
Assay: Antagonist activity at P2Y1 in rabbit platelet-rich plasma assessed as inhibition of ADP-induced increase in intracellular Ca2+ concentration preincubated for 5 mins followed by ADP addition and measured for 3 mins by fluo4 dye-based fluorescence assay
Assay type: cell-free
Details: Oryctolagus cuniculus

| IC50 [µM] | SMILES |
| --- | --- |
| 3.03 | CC(C)(C)c1ccccc1Oc1ncccc1NC(=O)Nc1ccc(OC(F)(F)F)cc1 |

Molecular target: P2Y purinoceptor 12 (Homo sapiens, UniProt Q9H244)
Sequence (Q9H244 whole entry): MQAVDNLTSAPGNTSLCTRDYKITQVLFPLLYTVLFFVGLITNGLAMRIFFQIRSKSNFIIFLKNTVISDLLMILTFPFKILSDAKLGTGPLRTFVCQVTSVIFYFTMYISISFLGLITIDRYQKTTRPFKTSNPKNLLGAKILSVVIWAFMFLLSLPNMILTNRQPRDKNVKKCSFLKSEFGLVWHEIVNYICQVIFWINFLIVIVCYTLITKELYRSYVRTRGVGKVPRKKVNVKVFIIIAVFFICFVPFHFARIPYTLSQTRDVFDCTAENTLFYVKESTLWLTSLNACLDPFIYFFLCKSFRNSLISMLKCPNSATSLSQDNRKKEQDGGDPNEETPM
Assay: Antagonist activity at P2Y12 in human whole blood assessed as suppression of ADP-induced decrease in PGE1-induced VASP phosphorylation measured after 10 mins by immunostaining based flow cytometric analysis
Assay type: tissue-based
Details: not given

| IC50 [µM] | SMILES |
| --- | --- |
| 176 | CNc1nc(Cl)nc2c1ncn2CC(COC(=O)C(C)(C)C)COC(=O)C(C)(C)C |
| 5.14 | CCCSc1nc(N[C@@H]2C[C@H]2c2ccc(F)c(F)c2)c2nnn([C@@H]3C[C@H](OCCO)[C@@H](O)[C@H]3O)c2n1 [TICAGRELOR] |

Molecular target: Xanthine dehydrogenase/oxidase (Bos taurus, UniProt P80457)
Sequence (P80457 whole entry): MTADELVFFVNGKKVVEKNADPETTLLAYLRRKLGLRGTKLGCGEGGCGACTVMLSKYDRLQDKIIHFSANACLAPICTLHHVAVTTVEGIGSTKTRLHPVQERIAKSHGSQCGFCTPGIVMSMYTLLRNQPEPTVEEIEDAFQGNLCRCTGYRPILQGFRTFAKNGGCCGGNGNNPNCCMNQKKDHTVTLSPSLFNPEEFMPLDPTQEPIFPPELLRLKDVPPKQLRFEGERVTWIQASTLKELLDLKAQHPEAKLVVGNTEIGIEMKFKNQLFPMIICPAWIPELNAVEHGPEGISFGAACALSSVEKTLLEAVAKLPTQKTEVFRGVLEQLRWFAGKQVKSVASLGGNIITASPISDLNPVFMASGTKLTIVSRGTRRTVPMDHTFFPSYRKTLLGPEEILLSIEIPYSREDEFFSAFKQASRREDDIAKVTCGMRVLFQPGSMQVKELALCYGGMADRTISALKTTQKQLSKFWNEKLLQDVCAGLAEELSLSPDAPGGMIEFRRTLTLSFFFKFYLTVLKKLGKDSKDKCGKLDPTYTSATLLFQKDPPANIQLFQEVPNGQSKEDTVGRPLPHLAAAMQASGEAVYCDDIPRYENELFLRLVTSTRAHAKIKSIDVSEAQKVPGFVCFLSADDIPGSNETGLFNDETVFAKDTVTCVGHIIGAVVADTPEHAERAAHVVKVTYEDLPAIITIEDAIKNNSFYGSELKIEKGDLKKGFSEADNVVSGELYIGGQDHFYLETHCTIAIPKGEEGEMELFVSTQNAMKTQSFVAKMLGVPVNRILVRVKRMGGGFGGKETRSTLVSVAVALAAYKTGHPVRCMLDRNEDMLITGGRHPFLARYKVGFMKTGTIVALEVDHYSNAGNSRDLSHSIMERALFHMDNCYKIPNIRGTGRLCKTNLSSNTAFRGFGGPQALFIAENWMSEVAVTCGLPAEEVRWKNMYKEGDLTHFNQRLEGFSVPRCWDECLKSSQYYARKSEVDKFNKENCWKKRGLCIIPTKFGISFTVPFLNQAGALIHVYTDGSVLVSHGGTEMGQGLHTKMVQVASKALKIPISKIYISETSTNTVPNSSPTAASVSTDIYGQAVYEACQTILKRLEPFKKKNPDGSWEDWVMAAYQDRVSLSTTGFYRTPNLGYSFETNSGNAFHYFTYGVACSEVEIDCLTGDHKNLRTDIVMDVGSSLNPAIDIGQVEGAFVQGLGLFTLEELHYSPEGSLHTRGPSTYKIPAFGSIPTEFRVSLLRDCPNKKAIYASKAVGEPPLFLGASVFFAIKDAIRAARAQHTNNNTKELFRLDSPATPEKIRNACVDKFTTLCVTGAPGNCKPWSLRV
Assay: Inhibition of bovine xanthine oxidase assessed as reduction in uric acid formation at 10 uM using xanthine as substrate preincubated for 15 mins followed by substrate addition measured at 30 sec interval for upto 2 mins by spectrophotometric analysis relative to control
Details: cattle, time 17 min

| inhibition at 10 µM [%] | SMILES |
| --- | --- |
| < 50 | CCCSc1nc(N[C@@H]2C[C@H]2c2ccc(F)c(F)c2)c2nnn([C@@H]3C[C@H](OCCO)[C@@H](O)[C@H]3O)c2n1 [TICAGRELOR] |

Tested on: Rattus norvegicus
Assay: Antithrombotic activity in FeCl3-induced Sprague-Dawley rat model of arterial thrombosis assessed as reduction in thrombus weight at 10 mg/kg, po qd administered as single dose for 7 days and measured 2 hrs post last dose
Assay type: functional
Set-up: scale not given: the % may be the effect or the level left
Details: time 7 day

| SMILES | Activity [%] |
| --- | --- |
| CCCSc1nc(N[C@@H]2C[C@H]2c2ccc(F)c(F)c2)c2nnn([C@@H]3C[C@H](OCCO)[C@@H](O)[C@H]3O)c2n1 [TICAGRELOR] | 39.2 |

Tested on: not listed separately
Assay: Toxicity in Sprague-Dawley rat model of tail-snip bleeding assessed as bleeding time at 10 mg/kg, po administered via gavage as single dose measured within 2 hrs post tail snip (reference value: 17.69 min)
Assay type: organism-based
Details: in vivo

| SMILES | Time [min] |
| --- | --- |
| CCCSc1nc(N[C@@H]2C[C@H]2c2ccc(F)c(F)c2)c2nnn([C@@H]3C[C@H](OCCO)[C@@H](O)[C@H]3O)c2n1 [TICAGRELOR] | 120 |

Tested on: not listed separately
Assay: Toxicity in Sprague-Dawley rat model of tail snip bleeding assessed as bleeding weight at 10 mg/kg, po administered via gavage as single dose measured within 2 hrs post tail snip(reference value: 0.08 g)
Assay type: organism-based
Details: in vivo

| SMILES | Activity [g] |
| --- | --- |
| CCCSc1nc(N[C@@H]2C[C@H]2c2ccc(F)c(F)c2)c2nnn([C@@H]3C[C@H](OCCO)[C@@H](O)[C@H]3O)c2n1 [TICAGRELOR] | 3.89 |
